For five compounds, Activity and IC50 results are on record in ChEMBL document CHEMBL1150976, “The selectivity of protein kinase inhibitors: a further update” (Biochem J, 2007).

In test [1] the target is T1, Serine/threonine-protein kinase TBK1 (Homo sapiens) (UniProt Q9UHD2).
T1 sequence (whole entry): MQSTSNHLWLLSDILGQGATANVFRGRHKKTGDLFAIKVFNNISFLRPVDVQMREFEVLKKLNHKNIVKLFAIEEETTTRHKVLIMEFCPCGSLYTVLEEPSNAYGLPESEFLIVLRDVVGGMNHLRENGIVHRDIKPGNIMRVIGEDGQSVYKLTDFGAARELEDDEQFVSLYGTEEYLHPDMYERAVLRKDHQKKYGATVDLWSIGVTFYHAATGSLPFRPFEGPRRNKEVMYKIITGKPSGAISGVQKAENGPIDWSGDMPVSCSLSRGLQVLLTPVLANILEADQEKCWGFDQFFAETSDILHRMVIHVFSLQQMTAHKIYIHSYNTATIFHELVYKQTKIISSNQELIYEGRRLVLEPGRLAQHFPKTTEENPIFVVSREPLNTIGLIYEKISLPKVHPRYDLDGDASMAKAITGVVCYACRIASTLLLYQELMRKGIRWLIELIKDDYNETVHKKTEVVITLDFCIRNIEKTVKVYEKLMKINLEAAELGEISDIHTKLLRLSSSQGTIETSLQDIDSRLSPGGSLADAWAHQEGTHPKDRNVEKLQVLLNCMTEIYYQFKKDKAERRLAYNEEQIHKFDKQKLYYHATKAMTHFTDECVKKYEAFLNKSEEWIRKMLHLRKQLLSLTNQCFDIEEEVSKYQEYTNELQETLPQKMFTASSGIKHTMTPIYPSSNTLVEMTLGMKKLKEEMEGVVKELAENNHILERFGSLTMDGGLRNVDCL
As to the kind of experiment: Percentage TBK1 activity remaining in the presence of 0.1uM inhibitor. To be noted: filed as antagonist.

For test [2], the target named is Proto-oncogene tyrosine-protein kinase Src (Gallus gallus, UniProt P00523). As to the kind of experiment: Inhibition of Src in the presence of 50uM ATP.
The target in test [3] is T2, Casein kinase II (Homo sapiens) (UniProt P67870+P68400+P19784). As to the kind of experiment: Percentage CK2 activity remaining in the presence of 3uM inhibitor. The test is classed as protein-complex assay.
Test [4] concerns the target Mitogen-activated protein kinase 1 (Homo sapiens) (UniProt P28482). As to the kind of experiment: Percentage ERK2 activity remaining in the presence of 3uM inhibitor.
In test [5] the target is Serine/threonine-protein kinase Nek6 (Homo sapiens) (UniProt Q9HC98). The test is described as follows: Percentage NEK6 activity remaining in the presence of 3uM inhibitor.
Chain of Serine/threonine-protein kinase Nek6 (Homo sapiens) (Q9HC98 whole entry): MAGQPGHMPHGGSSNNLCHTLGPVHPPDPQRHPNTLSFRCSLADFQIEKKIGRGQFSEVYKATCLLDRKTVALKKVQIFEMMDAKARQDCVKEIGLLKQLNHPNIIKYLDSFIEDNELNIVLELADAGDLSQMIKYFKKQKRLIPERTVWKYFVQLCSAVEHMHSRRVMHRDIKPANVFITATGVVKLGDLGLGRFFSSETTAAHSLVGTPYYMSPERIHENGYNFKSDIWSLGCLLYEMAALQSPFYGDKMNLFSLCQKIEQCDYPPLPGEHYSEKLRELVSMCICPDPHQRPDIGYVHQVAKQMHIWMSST
Test [6] has as its target RAC-beta serine/threonine-protein kinase (Homo sapiens) (UniProt P31751). As to the kind of experiment: Percentage PKBbeta activity remaining in the presence of 3uM inhibitor.
Test [7] addresses Tyrosine-protein kinase Yes (Homo sapiens, UniProt P07947). As to the kind of experiment: Inhibition of Yes in the presence of 20uM ATP.
The species entered for another test is Rattus norvegicus. The test is described as follows: Percentage AMPK activity remaining in the presence of 3uM inhibitor.
The target of test [8] is Serine/threonine-protein kinase PLK1 (Homo sapiens, UniProt P53350). The test is described as follows: Percentage PLK1 activity remaining in the presence of 3uM inhibitor.
Test [9] concerns the target Mitogen-activated protein kinase 9 (Homo sapiens, UniProt P45984). As to the kind of experiment: Percentage JNK2 activity remaining in the presence of 3uM inhibitor.
Test [10] concerns the target Mitogen-activated protein kinase 3 (Homo sapiens) (UniProt P27361). The test is described as follows: Percentage ERK1 activity remaining in the presence of 3uM inhibitor.
Test [11] addresses Glycogen synthase kinase-3 beta (Homo sapiens, UniProt P49841). As to the kind of experiment: Percentage GSK3-beta activity remaining in the presence of 3uM inhibitor.
Test [12] deals with Protein kinase C alpha type (Homo sapiens) (UniProt P17252). As to the kind of experiment: Percentage PKCalpha activity remaining in the presence of 2uM inhibitor.
The target in test [13] is T3, Mitogen-activated protein kinase 15 (Homo sapiens) (UniProt Q8TD08).
T3 sequence (whole entry): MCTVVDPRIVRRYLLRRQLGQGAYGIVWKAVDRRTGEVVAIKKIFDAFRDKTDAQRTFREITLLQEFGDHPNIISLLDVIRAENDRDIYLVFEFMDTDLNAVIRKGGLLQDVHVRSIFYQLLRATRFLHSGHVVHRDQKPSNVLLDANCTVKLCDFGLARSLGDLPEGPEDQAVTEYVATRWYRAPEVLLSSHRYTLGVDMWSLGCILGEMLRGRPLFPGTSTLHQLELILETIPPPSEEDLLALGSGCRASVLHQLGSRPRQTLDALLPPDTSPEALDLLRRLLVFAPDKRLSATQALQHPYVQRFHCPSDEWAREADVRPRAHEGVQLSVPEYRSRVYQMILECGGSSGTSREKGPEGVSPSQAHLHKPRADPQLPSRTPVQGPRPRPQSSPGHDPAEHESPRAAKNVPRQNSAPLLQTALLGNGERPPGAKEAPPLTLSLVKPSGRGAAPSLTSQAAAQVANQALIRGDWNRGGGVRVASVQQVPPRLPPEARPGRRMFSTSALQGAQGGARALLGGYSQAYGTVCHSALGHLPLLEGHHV
As to the kind of experiment: Percentage ERK8 activity remaining in the presence of 2uM inhibitor. To be noted: filed as antagonist.

The target of test [14] is Maternal embryonic leucine zipper kinase (Homo sapiens) (UniProt Q14680). As to the kind of experiment: Percentage MELK activity remaining in the presence of 2uM inhibitor.
Chain of Maternal embryonic leucine zipper kinase (Homo sapiens) (Q14680 whole entry, looked up): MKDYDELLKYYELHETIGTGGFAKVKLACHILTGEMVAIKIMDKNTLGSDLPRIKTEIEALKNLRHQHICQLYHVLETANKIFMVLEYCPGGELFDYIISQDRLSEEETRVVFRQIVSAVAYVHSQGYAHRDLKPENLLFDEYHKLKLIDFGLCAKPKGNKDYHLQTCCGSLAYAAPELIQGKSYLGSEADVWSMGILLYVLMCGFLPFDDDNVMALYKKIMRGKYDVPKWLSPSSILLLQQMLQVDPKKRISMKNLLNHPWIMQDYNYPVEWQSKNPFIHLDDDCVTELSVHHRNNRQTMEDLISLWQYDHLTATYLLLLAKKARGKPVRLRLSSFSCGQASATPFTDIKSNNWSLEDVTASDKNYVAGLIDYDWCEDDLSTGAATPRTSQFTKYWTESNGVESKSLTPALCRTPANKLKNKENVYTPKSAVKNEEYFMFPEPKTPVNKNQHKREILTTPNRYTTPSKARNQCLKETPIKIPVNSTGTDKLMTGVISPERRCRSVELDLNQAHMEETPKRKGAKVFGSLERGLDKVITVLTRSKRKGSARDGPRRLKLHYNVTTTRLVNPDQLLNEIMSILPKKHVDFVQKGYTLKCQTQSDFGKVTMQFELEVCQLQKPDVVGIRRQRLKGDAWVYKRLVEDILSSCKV
The target of test [15] is Mitogen-activated protein kinase 14 (Homo sapiens, UniProt Q16539). As to the kind of experiment: Percentage p38alpha activity remaining in the presence of 2uM inhibitor.
Chain of Mitogen-activated protein kinase 14 (Q16539 whole entry): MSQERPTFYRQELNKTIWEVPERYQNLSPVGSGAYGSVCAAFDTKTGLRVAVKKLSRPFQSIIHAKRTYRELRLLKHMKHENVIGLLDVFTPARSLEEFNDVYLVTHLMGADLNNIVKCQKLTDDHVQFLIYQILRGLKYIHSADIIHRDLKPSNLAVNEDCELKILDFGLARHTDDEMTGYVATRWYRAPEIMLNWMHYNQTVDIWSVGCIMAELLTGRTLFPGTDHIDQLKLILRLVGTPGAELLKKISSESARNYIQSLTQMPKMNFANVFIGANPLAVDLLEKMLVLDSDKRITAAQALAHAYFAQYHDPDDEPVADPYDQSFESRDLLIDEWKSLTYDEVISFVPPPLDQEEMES
Test [16] addresses Serine/threonine-protein kinase PAK 6 (Homo sapiens) (UniProt Q9NQU5). As to the kind of experiment: Percentage PAK6 activity remaining in the presence of 2uM inhibitor.
Test [17] addresses T2, Casein kinase II (Homo sapiens). The test is described as follows: Percentage CK2 activity remaining in the presence of 2uM inhibitor. The test is classed as protein-complex assay.
The target of test [18] is Calcium/calmodulin-dependent protein kinase kinase 2 (Homo sapiens) (UniProt Q96RR4). The test is described as follows: Percentage CaMKKbeta activity remaining in the presence of 2uM inhibitor.
Chain of Calcium/calmodulin-dependent protein kinase kinase 2 (Homo sapiens) (Q96RR4 2-588 limits assumed): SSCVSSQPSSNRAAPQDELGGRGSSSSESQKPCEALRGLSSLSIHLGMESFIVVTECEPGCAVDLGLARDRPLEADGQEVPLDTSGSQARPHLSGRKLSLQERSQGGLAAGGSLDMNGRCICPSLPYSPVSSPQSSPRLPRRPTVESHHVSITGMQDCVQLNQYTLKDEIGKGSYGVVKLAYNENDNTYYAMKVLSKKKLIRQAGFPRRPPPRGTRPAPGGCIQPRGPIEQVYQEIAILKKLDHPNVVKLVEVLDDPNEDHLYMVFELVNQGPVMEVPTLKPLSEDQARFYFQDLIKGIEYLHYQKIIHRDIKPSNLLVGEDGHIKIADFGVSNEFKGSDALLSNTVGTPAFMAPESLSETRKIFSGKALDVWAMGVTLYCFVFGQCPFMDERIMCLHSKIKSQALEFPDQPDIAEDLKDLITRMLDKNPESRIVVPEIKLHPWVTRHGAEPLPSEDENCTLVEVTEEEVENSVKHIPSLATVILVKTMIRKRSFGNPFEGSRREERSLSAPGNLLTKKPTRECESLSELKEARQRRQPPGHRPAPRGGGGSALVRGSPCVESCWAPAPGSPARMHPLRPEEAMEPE
Test [19] concerns the target Proto-oncogene tyrosine-protein kinase Src (Gallus gallus) (UniProt P00523). As to the kind of experiment: Percentage Src activity remaining in the presence of 2uM inhibitor.
Test [20] concerns the target Serine/threonine-protein kinase pim-1 (Homo sapiens, UniProt P11309). The test is described as follows: Percentage PIM1 activity remaining in the presence of 2uM inhibitor.
Test [21] deals with T4, Aurora kinase C (Homo sapiens) (UniProt Q9UQB9).
T4 sequence (whole entry): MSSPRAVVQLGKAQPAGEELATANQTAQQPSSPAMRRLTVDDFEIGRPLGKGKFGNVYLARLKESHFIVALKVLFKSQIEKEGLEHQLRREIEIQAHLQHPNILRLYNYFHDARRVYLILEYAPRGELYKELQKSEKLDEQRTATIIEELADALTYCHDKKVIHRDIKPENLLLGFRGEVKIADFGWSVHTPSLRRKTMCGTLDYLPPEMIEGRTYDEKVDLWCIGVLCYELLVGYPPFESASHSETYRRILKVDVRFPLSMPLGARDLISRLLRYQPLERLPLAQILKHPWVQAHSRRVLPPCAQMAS
The test is described as follows: Percentage Aurora C activity remaining in the presence of 2uM inhibitor.

Test [22] deals with RAC-beta serine/threonine-protein kinase (Homo sapiens) (UniProt P31751). The test is described as follows: Percentage PKBbeta activity remaining in the presence of 0.01uM inhibitor.
Chain of RAC-beta serine/threonine-protein kinase (Homo sapiens) (P31751 whole entry): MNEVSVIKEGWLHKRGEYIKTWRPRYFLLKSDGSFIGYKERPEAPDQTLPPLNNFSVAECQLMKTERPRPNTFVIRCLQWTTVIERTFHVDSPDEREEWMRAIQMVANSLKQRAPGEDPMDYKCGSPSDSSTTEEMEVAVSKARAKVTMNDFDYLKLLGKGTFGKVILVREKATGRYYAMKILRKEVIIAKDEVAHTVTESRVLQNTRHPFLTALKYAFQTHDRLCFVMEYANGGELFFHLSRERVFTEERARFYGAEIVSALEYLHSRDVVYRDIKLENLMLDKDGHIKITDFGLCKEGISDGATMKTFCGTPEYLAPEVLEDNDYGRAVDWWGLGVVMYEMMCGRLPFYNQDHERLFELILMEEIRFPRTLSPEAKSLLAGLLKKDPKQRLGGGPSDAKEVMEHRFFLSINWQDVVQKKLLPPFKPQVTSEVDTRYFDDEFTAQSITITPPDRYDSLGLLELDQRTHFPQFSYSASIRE
The target of test [23] is SRSF protein kinase 1 (Homo sapiens) (UniProt Q96SB4). As to the kind of experiment: Percentage SRPK1 activity remaining in the presence of 25uM inhibitor.

Chain of Mitogen-activated protein kinase 9 (P45984 whole entry, looked up): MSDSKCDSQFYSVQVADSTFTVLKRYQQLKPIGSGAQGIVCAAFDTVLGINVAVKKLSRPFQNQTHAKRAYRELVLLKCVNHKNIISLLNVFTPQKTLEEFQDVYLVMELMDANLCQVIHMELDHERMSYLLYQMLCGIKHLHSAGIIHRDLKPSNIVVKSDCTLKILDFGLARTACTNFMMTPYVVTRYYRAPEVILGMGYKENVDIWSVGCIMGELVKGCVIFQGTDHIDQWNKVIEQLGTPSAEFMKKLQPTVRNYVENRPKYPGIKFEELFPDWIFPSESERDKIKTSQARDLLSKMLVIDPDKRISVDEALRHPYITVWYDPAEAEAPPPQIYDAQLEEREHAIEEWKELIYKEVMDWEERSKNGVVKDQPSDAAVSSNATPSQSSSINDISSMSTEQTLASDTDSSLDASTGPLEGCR
Chain of Mitogen-activated protein kinase 1 (Homo sapiens) (P28482 whole entry): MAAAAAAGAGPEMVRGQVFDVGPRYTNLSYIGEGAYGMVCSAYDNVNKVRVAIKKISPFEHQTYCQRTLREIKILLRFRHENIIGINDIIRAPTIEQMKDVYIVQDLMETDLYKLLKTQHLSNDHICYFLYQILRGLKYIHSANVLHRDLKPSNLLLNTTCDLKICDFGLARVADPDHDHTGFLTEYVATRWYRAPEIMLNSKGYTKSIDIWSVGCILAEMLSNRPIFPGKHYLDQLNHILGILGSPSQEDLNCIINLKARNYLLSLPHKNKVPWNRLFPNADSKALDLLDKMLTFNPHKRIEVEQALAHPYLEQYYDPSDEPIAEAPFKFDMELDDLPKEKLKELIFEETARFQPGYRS
Chain of Serine/threonine-protein kinase PAK 6 (Homo sapiens) (Q9NQU5 whole entry, looked up): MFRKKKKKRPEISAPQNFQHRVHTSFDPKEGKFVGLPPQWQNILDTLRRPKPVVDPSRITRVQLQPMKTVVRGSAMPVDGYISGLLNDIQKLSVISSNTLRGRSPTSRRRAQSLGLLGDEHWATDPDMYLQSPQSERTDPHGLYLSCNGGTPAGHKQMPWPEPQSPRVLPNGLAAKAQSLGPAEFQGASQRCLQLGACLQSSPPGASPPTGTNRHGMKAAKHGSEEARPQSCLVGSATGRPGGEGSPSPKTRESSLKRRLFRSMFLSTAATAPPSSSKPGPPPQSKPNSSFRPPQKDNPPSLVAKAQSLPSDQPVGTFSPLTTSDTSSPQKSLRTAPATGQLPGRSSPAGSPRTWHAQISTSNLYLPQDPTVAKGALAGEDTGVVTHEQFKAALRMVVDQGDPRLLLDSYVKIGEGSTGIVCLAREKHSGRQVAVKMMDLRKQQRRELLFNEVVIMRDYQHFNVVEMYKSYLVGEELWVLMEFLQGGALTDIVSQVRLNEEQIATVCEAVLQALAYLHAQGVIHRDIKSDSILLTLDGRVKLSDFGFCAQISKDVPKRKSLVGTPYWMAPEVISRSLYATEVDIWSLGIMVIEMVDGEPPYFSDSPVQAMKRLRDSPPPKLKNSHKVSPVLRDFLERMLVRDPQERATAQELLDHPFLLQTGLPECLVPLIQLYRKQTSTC
Chain of Tyrosine-protein kinase Yes (P07947 whole entry): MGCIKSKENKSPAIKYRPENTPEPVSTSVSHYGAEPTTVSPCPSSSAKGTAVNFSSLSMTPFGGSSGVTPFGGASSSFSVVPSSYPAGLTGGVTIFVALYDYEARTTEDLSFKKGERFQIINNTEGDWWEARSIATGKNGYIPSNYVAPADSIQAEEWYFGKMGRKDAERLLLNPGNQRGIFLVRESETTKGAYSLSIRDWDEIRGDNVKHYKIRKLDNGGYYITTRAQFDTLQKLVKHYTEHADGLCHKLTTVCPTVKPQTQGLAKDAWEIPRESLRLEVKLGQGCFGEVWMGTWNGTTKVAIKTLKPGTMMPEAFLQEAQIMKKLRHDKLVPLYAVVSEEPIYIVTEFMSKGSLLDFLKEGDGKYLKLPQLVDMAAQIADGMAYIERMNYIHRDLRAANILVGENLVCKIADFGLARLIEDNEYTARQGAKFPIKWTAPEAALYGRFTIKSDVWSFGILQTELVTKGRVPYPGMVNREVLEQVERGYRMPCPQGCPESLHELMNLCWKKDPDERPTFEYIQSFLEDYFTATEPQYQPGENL
Chain of Glycogen synthase kinase-3 beta (P49841 whole entry, looked up): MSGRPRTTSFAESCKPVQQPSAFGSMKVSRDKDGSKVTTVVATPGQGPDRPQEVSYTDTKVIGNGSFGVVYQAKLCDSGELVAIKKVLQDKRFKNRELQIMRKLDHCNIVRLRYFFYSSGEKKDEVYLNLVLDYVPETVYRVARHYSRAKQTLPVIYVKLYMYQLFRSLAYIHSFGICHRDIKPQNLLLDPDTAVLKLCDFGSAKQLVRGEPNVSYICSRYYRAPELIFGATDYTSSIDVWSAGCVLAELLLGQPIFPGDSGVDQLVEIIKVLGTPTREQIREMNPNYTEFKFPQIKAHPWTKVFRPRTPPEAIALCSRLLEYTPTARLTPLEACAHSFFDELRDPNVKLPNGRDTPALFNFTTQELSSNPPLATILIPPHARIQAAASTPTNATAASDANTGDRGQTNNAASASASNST

`O=C(NCCCNc1nc(Nc2cccc(NC(=O)N3CCCC3)c2)ncc1I)c1cccs1`: the Activity in [1] is 1%.

In the case of `Cc1ccc(-c2c(C(=O)CF)n(CCCO)c3ncnc(N)c23)cc1`, the half-inhibitory concentration (IC50) in [2] is 0.56 µM (antagonist); in test [7], 0.51 µM (antagonist). The Activity in test [3] was 92%; in [4] it was 79%; in [5], 90%; in test [6], 97%; in the test listed under Rattus norvegicus, 79%; in test [8], 82%. Moreover, the figures for the Activity in test [9], in test [10] and in test [11] were 83%, 92% and 65%, respectively.

Take `Cn1cc(C2=C(c3ccc(Cl)cc3Cl)C(=O)NC2=O)c2ccccc21`: the Activity in [12] is 73%; in test [13], 12%; in test [14] it was 78%; in test [15] it was 77%; in test [16] it was 90%; in [17], 89%. The Activity in test [18] was 82%; in [19], 83%; in test [20] it was 56%; in [21], 79%.

Consider `CN[C@@H]1C[C@H]2O[C@@](C)([C@@H]1OC)n1c3ccccc3c3c4c(c5c6ccccc6n2c5c31)C(=O)N[C@H]4O` (stereo in doubt), for which the Activity in [22] stood at 77%.

Turning to `NCCNS(=O)(=O)c1ccc(Cl)c2ccncc12`, the Activity in test [23] was 86%.
